Patent US12227500B2, “Substituted pyrrolo[2,3-b]pyridines for suppressing toxic endoplasmic reticulum stress” (THE TRUSTEES OF COLUMBIA UNIVERSITY IN THE CITY OF NEW YORK, priority 2018, dated 2025)
Like-named read-outs stand apart in the source and are kept apart here.

Columns and labels:
Experiment in all cases: Radiolabeled ATP kinase assay, panel of 60 kinases (Table S5)
Type in all cases: biochemical
[1] = biological target: T1, panel of 60 human kinases (Homo sapiens, UniProt Q99683); conditions: ASK1/MAP3K5; 0.1 μM; 10 μM ATP; read-out: % Enzyme Activity (relative to DSMO controls)
T1 construct: purchased Reaction Biology Corp
T1 sequence (Q99683 1-1374): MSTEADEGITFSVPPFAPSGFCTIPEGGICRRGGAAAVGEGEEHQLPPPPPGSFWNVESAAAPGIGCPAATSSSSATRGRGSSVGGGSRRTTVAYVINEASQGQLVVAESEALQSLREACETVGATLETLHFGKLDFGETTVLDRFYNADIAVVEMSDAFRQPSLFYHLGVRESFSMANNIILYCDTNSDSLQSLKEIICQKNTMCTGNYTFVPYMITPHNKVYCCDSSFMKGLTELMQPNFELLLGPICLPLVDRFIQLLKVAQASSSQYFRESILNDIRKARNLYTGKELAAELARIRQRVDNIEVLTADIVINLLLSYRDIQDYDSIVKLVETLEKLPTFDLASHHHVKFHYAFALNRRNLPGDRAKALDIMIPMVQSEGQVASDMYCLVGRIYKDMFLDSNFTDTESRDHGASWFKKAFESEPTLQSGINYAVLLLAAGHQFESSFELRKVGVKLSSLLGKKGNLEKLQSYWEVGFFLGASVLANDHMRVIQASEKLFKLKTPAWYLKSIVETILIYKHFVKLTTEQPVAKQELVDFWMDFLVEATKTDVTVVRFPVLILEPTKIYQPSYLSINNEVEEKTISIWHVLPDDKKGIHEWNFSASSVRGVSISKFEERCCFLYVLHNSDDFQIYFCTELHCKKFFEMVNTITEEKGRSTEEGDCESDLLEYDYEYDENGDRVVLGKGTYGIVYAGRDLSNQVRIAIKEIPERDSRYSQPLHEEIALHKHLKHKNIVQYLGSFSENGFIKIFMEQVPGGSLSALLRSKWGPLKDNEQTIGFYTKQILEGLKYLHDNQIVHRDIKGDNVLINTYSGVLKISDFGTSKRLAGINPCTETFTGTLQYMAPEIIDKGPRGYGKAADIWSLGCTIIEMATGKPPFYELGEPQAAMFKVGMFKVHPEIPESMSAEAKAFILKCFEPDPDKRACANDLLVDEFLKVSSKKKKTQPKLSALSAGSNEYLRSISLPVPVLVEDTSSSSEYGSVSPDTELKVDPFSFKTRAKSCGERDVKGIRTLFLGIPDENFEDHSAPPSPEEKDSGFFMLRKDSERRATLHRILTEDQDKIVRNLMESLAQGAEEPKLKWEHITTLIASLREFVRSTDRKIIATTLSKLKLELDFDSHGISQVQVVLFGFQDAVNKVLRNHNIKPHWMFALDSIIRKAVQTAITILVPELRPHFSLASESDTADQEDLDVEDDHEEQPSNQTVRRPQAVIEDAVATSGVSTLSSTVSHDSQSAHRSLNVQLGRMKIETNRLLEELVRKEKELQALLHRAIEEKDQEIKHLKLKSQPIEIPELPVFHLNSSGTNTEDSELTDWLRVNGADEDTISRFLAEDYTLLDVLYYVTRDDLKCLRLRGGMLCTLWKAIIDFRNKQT
Outline: (§1)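 Cell-free radiolabeled-ATP kinase assays across a panel of 60 kinases; each compound tested at 0.1 μM and 0.5 μM for inhibition.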

[2] = biological target: T2, panel of 60 human kinases (Homo sapiens, UniProt Q00535); conditions: 0.1 μM, 10 μM ATP, read-out: % Enzyme Activity (relative to DSMO controls)
T2 construct: purchased Reaction Biology Corp
T2 sequence (Q00535 whole entry): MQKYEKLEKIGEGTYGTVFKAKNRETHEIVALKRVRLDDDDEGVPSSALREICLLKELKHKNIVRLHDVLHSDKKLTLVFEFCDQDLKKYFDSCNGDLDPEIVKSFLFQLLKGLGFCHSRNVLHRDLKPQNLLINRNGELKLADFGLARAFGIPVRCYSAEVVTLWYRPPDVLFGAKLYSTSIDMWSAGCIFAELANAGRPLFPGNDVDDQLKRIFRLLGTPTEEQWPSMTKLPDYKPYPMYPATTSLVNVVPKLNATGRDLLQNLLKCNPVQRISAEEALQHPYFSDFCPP
Outline: as §1

[3] = biological target: T3, panel of 60 human kinases (Homo sapiens, UniProt P11802); conditions: 0.1 μM, 10 μM ATP, read-out: % Enzyme Activity (relative to DSMO controls)
T3 construct: purchased Reaction Biology Corp
T3 sequence (P11802 whole entry): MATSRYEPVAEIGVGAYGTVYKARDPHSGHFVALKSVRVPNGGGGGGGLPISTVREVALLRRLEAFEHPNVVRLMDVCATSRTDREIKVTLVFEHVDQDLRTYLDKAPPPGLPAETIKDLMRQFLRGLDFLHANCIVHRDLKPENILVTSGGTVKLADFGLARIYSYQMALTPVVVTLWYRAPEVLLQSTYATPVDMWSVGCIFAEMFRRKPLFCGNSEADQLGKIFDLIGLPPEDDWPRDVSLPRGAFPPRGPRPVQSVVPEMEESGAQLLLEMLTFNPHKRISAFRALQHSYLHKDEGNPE
Outline: as §1

[4] = biological target: T4, panel of 60 human kinases (Homo sapiens, UniProt P21802); conditions: FGFR2; 0.1 μM; 10 μM ATP; read-out: % Enzyme Activity (relative to DSMO controls)
T4 construct: purchased Reaction Biology Corp
T4 sequence (P21802 22-821): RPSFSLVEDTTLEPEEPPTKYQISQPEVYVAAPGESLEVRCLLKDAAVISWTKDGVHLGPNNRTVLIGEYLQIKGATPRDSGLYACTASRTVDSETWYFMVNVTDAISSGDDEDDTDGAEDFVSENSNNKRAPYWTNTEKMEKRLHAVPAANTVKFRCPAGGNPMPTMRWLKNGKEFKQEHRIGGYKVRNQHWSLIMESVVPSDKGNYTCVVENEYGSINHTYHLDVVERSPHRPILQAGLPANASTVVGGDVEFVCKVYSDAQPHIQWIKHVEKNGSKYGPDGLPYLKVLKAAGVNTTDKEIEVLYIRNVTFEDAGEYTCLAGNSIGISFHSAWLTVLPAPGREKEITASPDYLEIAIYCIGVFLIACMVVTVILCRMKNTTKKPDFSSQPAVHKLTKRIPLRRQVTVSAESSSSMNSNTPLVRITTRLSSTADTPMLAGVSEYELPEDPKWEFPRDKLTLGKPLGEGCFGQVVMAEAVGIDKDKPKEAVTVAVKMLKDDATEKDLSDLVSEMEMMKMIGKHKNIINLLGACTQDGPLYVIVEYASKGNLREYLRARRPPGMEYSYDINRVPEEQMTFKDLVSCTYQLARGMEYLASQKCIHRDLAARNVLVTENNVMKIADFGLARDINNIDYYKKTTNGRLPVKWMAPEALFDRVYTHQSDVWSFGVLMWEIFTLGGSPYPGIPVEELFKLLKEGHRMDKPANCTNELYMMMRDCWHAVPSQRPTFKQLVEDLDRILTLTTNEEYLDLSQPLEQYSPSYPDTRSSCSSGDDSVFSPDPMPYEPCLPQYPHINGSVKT
Outline: as §1

[5] = biological target: T5, panel of 60 human kinases (Homo sapiens, UniProt Q9UQB9); conditions: Aurora C; 0.1 μM; 10 μM ATP; read-out: % Enzyme Activity (relative to DSMO controls)
T5 construct: purchased Reaction Biology Corp
T5 sequence (Q9UQB9 1-309): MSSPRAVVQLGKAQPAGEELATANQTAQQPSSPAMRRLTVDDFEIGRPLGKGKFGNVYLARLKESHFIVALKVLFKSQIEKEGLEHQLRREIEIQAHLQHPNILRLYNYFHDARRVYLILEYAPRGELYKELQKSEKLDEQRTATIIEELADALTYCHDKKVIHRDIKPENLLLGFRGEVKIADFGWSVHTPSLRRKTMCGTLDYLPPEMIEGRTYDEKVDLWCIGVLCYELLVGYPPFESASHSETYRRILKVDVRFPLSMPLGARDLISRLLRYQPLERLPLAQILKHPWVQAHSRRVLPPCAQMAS
Outline: as §1

Row | SMILES | remaining activity at 0.1 µM [1] [%] | remaining activity at 0.1 µM ([2]; CDK5/p25) [%] | remaining activity at 0.1 µM ([2]; CDK5/p35) [%] | remaining activity at 0.1 µM ([3]; CDK4/cyclin D1) [%] | remaining activity at 0.1 µM ([3]; CDK4/cyclin D3) [%] | remaining activity at 0.1 µM [4] [%] | remaining activity at 0.1 µM [5] [%]
1 | Cc1nn(C)c(C)c1-c1c[nH]c2ncc(-c3ccc(CN4CCN(C)CC4)cc3)cc12 [Compound 7ai, 5-(4-((4-Methylpiperazin-1-yl)methyl)phenyl)-3-(1,3,5-trimethyl-1H-pyrazol-4-yl)-1H-pyrrolo[2,3-b]pyridine] | 96.2 | 93.2 | 87.9 | 65.9 | 65.4 | 80.9 | 122
2 | COc1ccccc1-c1c[nH]c2ncc(-c3ccc(CN4CCN(C)CC4)cc3)cc12 [Compound 7at, 3-(2-Methoxyphenyl)-5-(4-((4-methylpiperazin-1-yl)methyl)phenyl)-1H-pyrrolo[2,3-b]pyridine] | 96.3 | 43.1 | 31.9 | 14.1 | 24.4 | 83.4 | 107
3 | CN1CCN(Cc2ccc(-c3cnc4[nH]cc(-c5ccc6[nH]ccc6c5)c4c3)cc2)CC1 [Compound 1, 3-(1H-Indol-5-yl)-5-(4-((4-methylpiperazin-1-yl)methyl)phenyl)-1H-pyrrolo[2,3-b]pyridine, reference compound] | 90.8 | 52.8 | 52.3 | 51 | 49.1 | 52.9 | 82.8
4 | CN1CCN(Cc2ccc(-c3cnc4[nH]cc(-c5cnn(Cc6ccccc6)c5)c4c3)cc2)CC1 [Compound 7ah, 3-(1-Benzyl-1H-pyrazol-4-yl)-5-(4-((4-methylpiperazin-1-yl)methyl)phenyl)-1H-pyrrolo[2,3-b]pyridine] | 95.6 | 52 | 46.3 | 25.9 | 26 | 73.8 | 78.5
5 | CN1CCN(Cc2ccc(-c3cnc4[nH]cc(-c5ccc6c(c5)OCCO6)c4c3)cc2)CC1 [Compound 7d, 3-(2,3-Dihydrobenzo[b][1,4]dioxin-6-yl)-5-(4-((4-methylpiperazin-1-yl)methyl)phenyl)-1H-pyrrolo[2,3-b]pyridine] | 80.2 | 16.4 | 14.2 | 19.4 | 26.7 | 70.4 | 92.3
6 | CN1CCN(Cc2ccc(-c3cnc4[nH]cc(-c5ccoc5)c4c3)cc2)CC1 [Compound 7w, 3-(Furan-3-yl)-5-(4-((4-methylpiperazin-1-yl)methyl)phenyl)-1H-pyrrolo[2,3-b]pyridine] | 96 | 89.4 | 82.2 | 73.4 | 72.2 | 77.8 | 94.3
7 | CN1CCN(Cc2ccc(-c3cnc4[nH]cc(-c5cccc(Cl)c5)c4c3)cc2)CC1 [Compound 7ad, 3-(3-Chlorophenyl)-5-(4-((4-methylpiperazin-1-yl)methyl)phenyl)-1H-pyrrolo[2,3-b]pyridine] | 95.4 | 84.4 | 83.9 | 70.9 | 58.1 | 77.6 | 104
8 | CN1CCN(Cc2ccc(-c3cnc4[nH]cc(-c5ccncc5)c4c3)cc2)CC1 [Compound 7n, 5-(4-((4-Methylpiperazin-1-yl)methyl)phenyl)-3-(pyridin-4-yl)-1H-pyrrolo[2,3-b]pyridine] | 95.4 | 69.2 | 57.5 | 27.8 | 37 | 94 | 101
9 | CN1CCN(Cc2ccc(-c3cnc4[nH]cc(-c5ccccc5Cl)c4c3)cc2)CC1 [Compound 7as, 3-(2-Chlorophenyl)-5-(4-((4-methylpiperazin-1-yl)methyl)phenyl)-1H-pyrrolo[2,3-b]pyridine] | 87.6 | 48.6 | 36 | 31.9 | 39.7 | 41.1 | 94.2
